This is an account of results in patent US12173088B2, “Anti-microbial peptides” (priority 2018, dated 2024).

For one data set, the system named is E. faecium V286-17 (VRE). The data set can be described thus: microbe, parasite or virus in culture. Format: cell-based, Enterococcus faecium. An outline of the steps: (§1)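 Peptides were serially diluted two-fold against bacteria grown in tryptic soy broth to log phase (OD600 ≈0.5), then seeded at OD600 0.001. Plates were held overnight at 37° C and read at 630 nm. USA300 was also tested at pH 6.8, 7.2 and 8.0, with 150 mM NaCl or 5-10% serum, plasma or peritoneal fluid.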

The test system of another data set is S. aureus USA300. Format: in vivo, Staphylococcus aureus. On the procedure:
Female C57BL/6 mice (6 weeks old) were purchased from Charles River. After environment adaptation, mice were induced neutropenic by administering two doses of cyclophosphamide on day 1 (150 mg/kg) and Day 4 (100 mg/kg). This cyclophosphamide administration was skipped for experiments using non-neutropenic mice (i.e., normal mice). On day 5, mice were infected with S. aureus USA300 LAC (˜2×10^6 CFU per mouse) via intraperitoneal injection (i.p.). For the treatment groups, mice were i.p. treated 2 hours post infection with peptides at a single dose of 5 mg/kg. Both positive and negative controls were included. At the end of the experiments, all animals were sacrificed according to institutional guidelines. Organs, including spleen, lung, kidney, and liver, were harvested, weighed, placed in sterile PBS and stored on ice. Harvested animal organs were subsequently homogenized using homogenizer (Omni, Kennesaw, GA). Proper dilutions, especially for untreated control groups, were made to get countable colonies. Blood agar plates were then incubated overnight at 37° C. The bacteria grown on plates were enumerated and plotted using the Graph pad Prism software.
Female C57BL/6 or Balb/c mice (6 weeks old) were purchased from Charles River. The mice were induced neutropenic by administering two doses of cyclophosphamide on day 1 (150 mg/kg) and Day 4 (100 mg/kg). On day 5, mice were infected with S. aureus USA300 (˜2×10^6 CFU per mouse) or K. pneumoniae E406-17 (˜5×10^5 CFU per mouse) via intraperitoneal injection (i.p.). For the treatment groups, mice were i.p. or intravenous (i.v.) treated 2 hours post infection with peptides at a single dose of 5, 10, or 15 mg/kg. Both positive and negative controls are used. At the end of the experiments, all animals were sacrificed according to institutional guidelines. […] The CFU of each mouse was plotted as an individual point and error bars represent the deviation within the experimental group. * p<0.05 ** p<0.01, ***p<0.001 and NS represents no significance (determined by Mann-Whitney test).

In a further data set the test system is P. aeruginosa E411-17. Put plainly: microbe, parasite or virus in culture. It is filed as cell-based, Pseudomonas aeruginosa. Put shortly: as §1
The next data set is described as follows: Toxicity to cells. It is filed as cell-based. The conditions noted are these: splenocytes (mouse spleen), Spleenocytes, read-out: LC50 (the source's name).
A short description of data set [1]: Cell viability assay (MTS). Format: cell-based. The conditions noted are these: human, read-out: LC50. As to the method: Peptides assessed for potential cytotoxicity using HepaRG (human hepatic progenitor cell line) and HEK-293 (human embryonic kidney) cells. Briefly, cells were seeded at a density of 1×10^4 per well in a tissue culture 96-well plate. For HepaRG cells, the working medium is prepared by adding the HepaRG Supplement to 100 ml/500 ml of Williams' Medium E and 1 ml/5 ml of GlutaMAX-1. For HEK-293 cells, DMEM supplemented with 10% fetal bovine serum (FBS) for both cell lines, and incubated at 37° C. in a 5% CO2 atmosphere for 24 hours. Culture medium was aspirated and replaced with fresh serum free media. Cells were exposed to different concentration of horine and verine for 1 hour at 37° C. in a 5% CO2 atmosphere. Post-incubation, the cells were washed and incubated with 100 μL of HepaRG specific/DMEM media containing 20 μL of MTS reagent for 2 hours at 37° C. Absorbance was read at 492 nm using a ChroMate® microplate reader (GMI).

Where [2] appears, read: E411-17, read-out: MIC P. aeruginosa E411-17.
Where [3] appears, read: HEK-293 (human embryonic kidney) cells, HEK293.
Where [4] appears, read: HepaRG (human hepatic progenitor cell line).

In brackets after ≈: the same amount, converted by molar mass. Like-named read-outs stand apart in the source and are kept apart here. Peptide text beside a SMILES is read from it.

For the compound `CC(C)C[C@H](NC(=O)[C@H](CC(C)C)NC(=O)[C@H](CCCCN)NC(=O)[C@H](CC(C)C)NC(=O)CNC(=O)[C@H](CC(C)C)NC(=O)[C@H](CO)NC(=O)[C@H](CC(C)C)NC(=O)[C@H](CC(C)C)NC(=O)[C@H](CC(C)C)NC(=O)[C@H](CCCCN)NC(=O)[C@H](CC(C)C)NC(=O)CN)C(N)=O` [DFT561, GLKLLLSLGLKLL] (H-GLKLLLSLGLKLL-NH2; N-terminus and C-terminus assumed), the “MIC E. faecium V286-17 (VRE)” value in the data set with E. faecium V286-17 (VRE) (V286-17 (VRE)) lay within 3.1 to 6.25 µM. Moreover, the Killing entry in the data set on S. aureus USA300 (USA300, in vivo, 5 mg/kg) was “up to 90%”. The MIC with P. aeruginosa E411-17 (setting [2]) was greater than 50 µM.

On to `CC(C)C[C@H](NC(=O)[C@H](Cc1c[nH]c2ccccc12)NC(=O)[C@H](Cc1c[nH]c2ccccc12)NC(=O)[C@@H](N)Cc1c[nH]c2ccccc12)C(=O)N[C@@H](CCCNC(=N)N)C(=O)N[C@@H](CCCNC(=N)N)C(=O)N[C@@H](CCCNC(=N)N)C(=O)N[C@@H](Cc1c[nH]c2ccccc12)C(N)=O` [Horine, WWWLRRRW] (H-WWWLRRRW-NH2; N-terminus and C-terminus assumed), for which the MIC in the data set on E. faecium V286-17 (VRE) (V286-17 (VRE), read-out: MIC E. faecium V286-17 (VRE)) is 2 µM (≈ 2.69 µg/mL); in the data set with P. aeruginosa E411-17 (setting [2]), greater than 32 µM. Besides, the CC50 in “Toxicity to cells” was greater than 50 µM. The results for the CC50 at 1 hour in data set [1] (setting [3]) and in data set [1] (setting [4]) were greater than 100 µM and greater than 80 µM, respectively.

Take `CN[C@H](CC(C)C)C(=O)N[C@H]1C(=O)N[C@@H](CC(N)=O)C(=O)N[C@H]2C(=O)N[C@H]3C(=O)N[C@H](C(=O)N[C@H](C(=O)O)c4cc(O)cc(O)c4-c4cc3ccc4O)[C@H](O)c3ccc(c(Cl)c3)Oc3cc2cc(c3O[C@@H]2O[C@H](CO)[C@@H](O)[C@H](O)[C@H]2O[C@H]2C[C@](C)(N)[C@H](O)[C@H](C)O2)Oc2ccc(cc2Cl)[C@H]1O` [Vancomycin]: the MIC was no less than 12.5 µM in the data set with E. faecium V286-17 (VRE) (Enterococcus faecium, VRE, read-out: MIC E. faecium V286-17 (VRE), Table 7); greater than 8 µM in the data set on E. faecium V286-17 (VRE) (Enterococcus faecium, VRE, read-out: MIC E. faecium V286-17 (VRE), Table 14); greater than 8 µM in the data set with P. aeruginosa E411-17 (Pseudomonas aeruginosa, E41117, read-out: MIC P. aeruginosa E411-17). For the same compound, the CFU decrease in the data set with S. aureus USA300 (spleen, lung, kidney, liver, 10 mg/kg, positive control) was 1-4 logs.

As to `CC(C)[C@H](NC(=O)[C@H](Cc1c[nH]c2ccccc12)NC(=O)[C@H](Cc1c[nH]c2ccccc12)NC(=O)[C@H](Cc1c[nH]c2ccccc12)NC(=O)[C@H](Cc1c[nH]c2ccccc12)NC(=O)[C@H](CCCNC(=N)N)NC(=O)[C@H](CCCNC(=N)N)NC(=O)[C@@H](N)CCCNC(=N)N)C(N)=O` [Verine, RRRWWWWV] (H-RRRWWWWV-NH2; N-terminus and C-terminus assumed), the MIC in the data set on E. faecium V286-17 (VRE) (Table 14, read-out: MIC E. faecium V286-17 (VRE)) turned out to be 2 µM (≈ 2.66 µg/mL). Further, the CC50 in the data set “Toxicity to cells” is greater than 12.5 µM. Further, the “MIC P. aeruginosa 411-17” value in the data set with P. aeruginosa E411-17 (Table 12) came out at 12.5 µM (≈ 16.6 µg/mL). In addition, the “MIC P. aeruginosa E411-17” value against P. aeruginosa E411-17 (Table 14) is 4 to 8 µM. Also, the CC50 at 1 hour in data set [1] (setting [3]) and in data set [1] (setting [4]) was greater than 80 µM in each case.
